Assay results as given in patent US9265253B2, “Use of macrocyclic picolinamides as fungicides” (DOW AGROSCIENCES LLC, priority 2013, dated 2016).
Like-named read-outs stand apart in the source and are kept apart here.

Experiments:
[1] = system: Mycosphaerella graminicola; Anamorph: Septoria tritici; test: Leaf Blotch of Wheat (SEPTTR) disease control; type: in vivo; details: Zymoseptoria tritici; for pest or weed control at 100 ppm: rate 100 ppm; for pest or weed control at 121.5 g/ha: rate 121.5 g/H
How it was run: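 Preventive or curative tests: first-leaf Yuma wheat, sprayed to run-off, inoculated with S. tritici, dew chamber at 100% humidity, then greenhouse at 20° C. Severity on the first leaf is scored on a 0–100% scale and expressed as % control against untreated plants.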

[2] = system: Puccinia triticina; Synonym: Puccinia recondite f. Sp. Tritici; test: Wheat Brown Rust (PUCCRT) disease control; type: in vivo; details: Puccinia triticina, topical; for pest or weed control at 100 ppm: rate 100 ppm; for pest or weed control at 121.5 g/ha: rate 121.5 g/H
How it was run: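 Brown rust on first-leaf Yuma wheat: spore inoculation before or after spray application (acetone/Triton X-100 solution, or EC with Trycol in track spray), overnight 100% RH at 22 °C, disease developed at 24 °C. Severity scored 0–100% and converted to percent control against untreated.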

[3] = 24 h, 1 Day Protectant, read-out: SEPTTR 1 DP disease control
[4] = 72 h, 3 Day Curative, read-out: SEPTTR 3 DC disease control
[5] = 24 h, 1 Day Protectant, read-out: PUCCRT 1 DP disease control
[6] = 72 h, 3 Day Curative, read-out: PUCCRT 3 DC disease control

| SMILES | pest or weed control at 100 ppm [1, 3] [%] | pest or weed control at 100 ppm [1, 4] [%] | pest or weed control at 100 ppm [2, 5] [%] | pest or weed control at 100 ppm [2, 6] [%] | melting point | pest or weed control at 121.5 g/ha [1, 3] [%] | pest or weed control at 121.5 g/ha [1, 4] [%] | pest or weed control at 121.5 g/ha [2, 5] [%] | pest or weed control at 121.5 g/ha [2, 6] [%] |
| --- | --- | --- | --- | --- | --- | --- | --- | --- | --- |
| COc1ccnc(C(=O)N[C@H]2CCC[C@H](Cc3ccc(C)cc3)[C@@H](OCC3CC3)[C@H](C)OC2=O)c1OCOC(C)=O [Compound F127] | 80 to 100 | 80 to 100 | 80 to 100 | 80 to 100 | 55 to 60 °C |  |  |  |  |
| CCCO[C@@H]1[C@@H](Cc2ccc(F)cc2)CCC[C@H](N)C(=O)O[C@H]1C.Cl |  |  |  |  | 215 to 217 °C |  |  |  |  |
| Cc1ccc(C[C@H]2CCC[C@H](N)C(=O)O[C@@H](C)[C@@H]2OCC2CC2)cc1.Cl |  |  |  |  | 210 °C (dec.) |  |  |  |  |
| COc1ccnc(C(=O)N[C@H]2CCC[C@H](Cc3ccc(F)cc3F)[C@@H](OCC(C)C)[C@H](C)OC2=O)c1O [Compound F59] | 80 to 100 | 80 to 100 | 80 to 100 | 80 to 100 | 69 to 72 °C | 80 to 100 | 0 to 80 | 80 to 100 |  |
| CC(C)CO[C@@H]1[C@@H](Cc2ccc(F)cc2F)CCC[C@H](N)C(=O)O[C@H]1C.Cl |  |  |  |  | 67 to 73 °C |  |  |  |  |
| COc1ccnc(C(=O)N[C@H]2CCC[C@H](Cc3ccc(F)cc3F)[C@@H](OCc3ccccc3)[C@H](C)OC2=O)c1O [Compound F52] | 80 to 100 | 80 to 100 | 80 to 100 | 80 to 100 | 68 to 72 °C |  |  |  |  |
| Cc1ccc(C[C@H]2CCC[C@H](N(C(=O)OC(C)(C)C)C(=O)OC(C)(C)C)C(=O)O[C@@H](C)[C@@H]2OCC(C)C)cc1 [Compound F232] |  |  |  |  | 110 to 114 °C |  |  |  |  |
| C[C@@H]1OC(=O)[C@@H](NC(=O)OC(C)(C)C)CCC[C@H](C)[C@H]1Oc1ccccc1 [Compound F224] |  |  |  |  | 144 to 145 °C |  |  |  |  |
| Cc1ccc(C[C@H]2CCC[C@H](N)C(=O)O[C@@H](C)[C@@H]2Oc2ccccc2)cc1.Cl |  |  |  |  | 200 to 210 °C (dec.) |  |  |  |  |
| COCN(C(=O)OC(C)(C)C)[C@H]1CCC[C@H](Cc2ccc(F)cc2F)[C@@H](OC(=O)c2ccco2)[C@H](C)OC1=O [Compound F260] |  |  |  |  | 45 to 48 °C |  |  |  |  |
| COc1ccnc(C(=O)N[C@H]2CCC[C@H](Cc3ccc(C)cc3)[C@@H](Oc3ccccc3)[C@H](C)OC2=O)c1OCOC(C)=O [Compound F134] | 80 to 100 | 80 to 100 | 80 to 100 | 80 to 100 | 71 to 75 °C |  |  |  |  |
| CCOCC(=O)OCOc1c(OC)ccnc1C(=O)N[C@H]1CCC[C@H](Cc2ccc(C)cc2)[C@@H](OCC2CC2)[C@H](C)OC1=O [Compound F180] | 80 to 100 | 80 to 100 | 80 to 100 | 80 to 100 | 50 to 55 °C | 80 to 100 | 80 to 100 | 80 to 100 | 0 to 80 |
| Cc1ccc(C[C@H]2CCC[C@H](N(C(=O)OC(C)(C)C)C(=O)OC(C)(C)C)C(=O)O[C@@H](C)[C@@H]2OCc2ccccc2)cc1 [Compound F230, tert-butyl N-[(3S,7R,8R,9S)-8-benzyloxy-9-methyl-2-oxo-7-(p-tolylmethyl)oxonan-3-yl]-N-tert-butoxycarbonyl-carbamate] |  |  |  |  | 164 to 166 °C |  |  |  |  |
| COc1ccnc(C(=O)N[C@H]2CCC[C@H](Cc3ccc(F)cc3F)[C@@H](OC(=O)c3ccco3)[C@H](C)OC2=O)c1O [Compound F60] | 80 to 100 | 80 to 100 | 80 to 100 | 80 to 100 | 93 to 97 °C | 80 to 100 |  | 80 to 100 |  |
| COc1ccnc(C(=O)N[C@H]2CCC[C@H](Cc3ccc(C)cc3)[C@@H](Oc3ccccc3)[C@H](C)OC2=O)c1O [Compound F49, 3-hydroxy-4-methoxy-N-((3S,7R,8R,9S)-9-methyl-7-(4-methylbenzyl)-2-oxo-8-phenoxyoxonan-3-yl)picolinamide] | 80 to 100 | 80 to 100 | 80 to 100 | 0 to 80 | 62 to 66 °C |  |  |  |  |
| COc1ccnc(C(=O)N[C@H]2CCC[C@H](Cc3ccc(F)cc3F)[C@@H](OCCCc3ccccc3)[C@H](C)OC2=O)c1OCOC(C)=O [Compound F141] | 80 to 100 | 80 to 100 | 80 to 100 | 0 to 80 | 40 to 45 °C | 80 to 100 | 0 to 80 | 80 to 100 |  |
| C[C@@H]1OC(=O)[C@@H](N)CCC[C@H](Cc2ccc(F)cc2F)[C@H]1OCCCc1ccccc1.Cl |  |  |  |  | 190 to 195 °C (dec.) |  |  |  |  |
| C[C@@H]1OC(=O)[C@@H](N)CCC[C@H](Cc2ccc(F)cc2F)[C@H]1OCc1ccccc1.Cl |  |  |  |  | 233 to 237 °C |  |  |  |  |
| Cc1ccc(C[C@H]2CCC[C@H](NC(=O)OC(C)(C)C)C(=O)O[C@@H](C)[C@@H]2OCc2ccccc2)cc1 [Compound F229] |  |  |  |  | 108 to 110 °C |  |  |  |  |
| COc1ccnc(C(=O)N[C@H]2CCC[C@H](Cc3ccc(C)cc3)[C@@H](Oc3ccccc3)[C@H](C)OC2=O)c1OC(C)=O [Compound F79, 4-methoxy-2-(((3S,7R,8R,9S)-9-methyl-7-(4-methylbenzyl)-2-oxo-8-phenoxyoxonan-3-yl)carbamoyl)pyridin-3-yl acetate] | 80 to 100 | 80 to 100 | 80 to 100 | 80 to 100 | 96 to 100 °C |  |  |  |  |
| COc1ccnc(C(=O)N[C@H]2CCC[C@H](Cc3ccc(C)cc3)[C@@H](OCC(C)C)[C@H](C)OC2=O)c1O [Compound F41] | 80 to 100 | 80 to 100 | 80 to 100 | 0 to 80 | 129 to 131 °C |  |  |  |  |
